In the supplement of paper PMC10307832:

Assays:
Experiment in all cases: relative viability (nuclei count vs DMSO), 5 days (fraction); higher = more cells survive
[1] = compound: CN(C)CC1=CC(=CC=C1)N=C(C2=CC=CC=C2)C3=C(NC4=C3C=CC(=C4)C(=O)N(C)C)O + CC(=O)Nc1cccc(-n2c(=O)n(C3CC3)c(=O)c3c(Nc4ccc(I)cc4F)n(C)c(=O)c(C)c32)c1 [Trametinib] (partner 0.02 µM)
How it was run: (§1)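 A single step with final 0.05% Triton X-100, 1% formaldehyde and 1 ug/ml Hoechst fixed the cells and stained nuclei 5 days after treatment. Lung cancer cell lines in 1536-well plates had been treated by pin tool the day after seeding with one drug alone or a fixed anchor-drug dose plus five library-drug doses (not always all listed) in √10 steps, and nuclei were counted on 4× images. Relative viability is the ratio of nuclei in treated wells to nuclei in vehicle wells, taken as the median of duplicate plates.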

[2] = compound: CN(C)CC1=CC(=CC=C1)N=C(C2=CC=CC=C2)C3=C(NC4=C3C=CC(=C4)C(=O)N(C)C)O + COc1cccc2cc(-c3nc([C@H]4CC[C@H](C(=O)O)CC4)n4ncnc(N)c34)[nH]c12 [OSI-027] (partner 0.5 µM)
How it was run: as §1

[3] = compound: CN(C)CC1=CC(=CC=C1)N=C(C2=CC=CC=C2)C3=C(NC4=C3C=CC(=C4)C(=O)N(C)C)O + C[C@@H](Oc1cc(-c2cnn(C3CCNCC3)c2)cnc1N)c1c(Cl)ccc(F)c1Cl [Crizotinib] (partner 1 µM)
How it was run: as §1

[4] = compound: CN(C)CC1=CC(=CC=C1)N=C(C2=CC=CC=C2)C3=C(NC4=C3C=CC(=C4)C(=O)N(C)C)O + N=C(N)NC(=N)NCCc1ccccc1 [Phenformin] (partner 250 µM)
How it was run: as §1

Row | Cell Line | relative viability ([1]; first compound 0.08 µM) | relative viability ([1]; first compound 0.253 µM) | relative viability ([1]; first compound 0.8 µM) | relative viability ([1]; first compound 2.53 µM) | relative viability ([1]; first compound 8 µM) | relative viability ([2]; first compound 0.08 µM) | relative viability ([2]; first compound 0.253 µM) | relative viability ([2]; first compound 0.8 µM) | relative viability ([2]; first compound 2.53 µM) | relative viability ([2]; first compound 8 µM) | relative viability ([3]; first compound 0.08 µM) | relative viability ([3]; first compound 0.253 µM) | relative viability ([3]; first compound 0.8 µM) | relative viability ([3]; first compound 2.53 µM) | relative viability ([3]; first compound 8 µM) | relative viability ([4]; first compound 0.08 µM) | relative viability ([4]; first compound 0.253 µM) | relative viability ([4]; first compound 0.8 µM) | relative viability ([4]; first compound 2.53 µM) | relative viability ([4]; first compound 8 µM)
1 | 201T | 0.71 | 0.693 | 0.73 | 0.716 | 0.657 | 0.737 | 0.736 | 0.762 | 0.586 | 0.584 | 1.03 | 1.03 | 1.02 | 1.02 | 0.981 | 0.437 | 0.449 | 0.416 | 0.428 | 0.41
2 | A-427 | 0.752 | 0.787 | 0.776 | 0.686 | 0.663 | 0.472 | 0.429 | 0.497 | 0.509 | 0.36 | 0.984 | 0.82 | 0.865 | 0.855 | 0.719 | 0.378 | 0.385 | 0.308 | 0.257 | 0.266
3 | ABC-1 | – | – | – | – | – | 0.433 | 0.504 | 0.442 | 0.568 | 0.447 | 1.17 | 1.12 | 1.01 | 0.764 | 0.891 | 0.205 | 0.277 | 0.231 | 0.207 | 0.243
4 | BEN | 1.01 | 0.799 | 1.2 | 1.01 | 0.941 | 0.286 | 0.31 | 0.25 | 0.306 | 0.289 | 0.791 | 0.739 | 0.866 | 0.876 | 0.641 | 0.233 | 0.274 | 0.238 | 0.223 | 0.267
5 | CAL-12T | 0.389 | 0.399 | 0.338 | 0.459 | 0.354 | 0.736 | 0.746 | 0.686 | 0.849 | 0.527 | 0.665 | 0.592 | 0.778 | 0.611 | 0.612 | 0.55 | 0.563 | 0.529 | 0.555 | 0.543
6 | COR-L23 | 0.688 | 0.551 | 0.589 | 0.517 | 0.567 | 0.722 | 0.788 | 0.818 | 0.741 | 0.732 | 0.675 | 0.603 | 0.622 | 0.532 | 0.553 | 0.495 | 0.413 | 0.402 | 0.423 | 0.421
7 | COR-L 105 | 0.508 | 0.447 | 0.381 | 0.492 | 0.398 | 0.634 | 0.641 | 0.477 | 0.687 | 0.609 | 0.857 | 0.892 | 0.882 | 0.644 | 0.625 | 0.464 | 0.546 | 0.427 | 0.455 | 0.478
8 | Calu-6 | – | – | – | – | – | – | – | – | – | – | 0.758 | 0.749 | 0.762 | 0.814 | 0.859 | – | – | – | – | –
9 | ChaGo-K-1 | 0.857 | 0.89 | 0.882 | 0.835 | 0.808 | 0.584 | 0.582 | 0.609 | 0.588 | 0.527 | 1.18 | 1.1 | 1.1 | – | 1.11 | 0.495 | 0.507 | 0.479 | 0.436 | 0.433
10 | EBC-1 | – | – | – | – | – | – | – | – | – | – | 0.186 | 0.212 | 0.21 | 0.184 | 0.196 | – | – | – | – | –
11 | EKVX | 0.32 | 0.389 | – | 0.432 | 0.438 | 0.718 | 0.726 | 0.781 | 0.764 | 0.739 | 0.842 | 0.921 | 1.03 | 0.879 | 0.981 | 0.239 | 0.251 | 0.221 | 0.247 | 0.241
12 | EMC-BAC-2 | 0.942 | 0.965 | 0.886 | 0.881 | 0.969 | 0.369 | 0.416 | 0.392 | 0.356 | 0.391 | 0.725 | 0.772 | 0.804 | 0.753 | 0.681 | 0.496 | 0.506 | 0.504 | 0.478 | 0.55
13 | EPLC-272H | 0.335 | 0.318 | 0.289 | 0.304 | 0.266 | 0.312 | 0.37 | 0.264 | 0.258 | 0.283 | 0.892 | 0.899 | 0.696 | 0.87 | 0.8 | 0.323 | 0.283 | 0.226 | 0.302 | 0.347
14 | H3255 | 0.64 | 0.642 | – | 0.66 | 0.692 | 0.649 | 0.592 | 0.698 | 0.682 | 0.632 | 0.958 | 0.782 | 0.756 | 0.795 | 0.85 | 0.44 | 0.356 | 0.338 | 0.392 | 0.371
15 | HARA | 0.715 | 0.632 | 0.622 | 0.59 | 0.84 | 0.525 | 0.553 | 0.397 | 0.482 | 0.319 | 1.02 | 1.02 | 1.05 | 1.02 | 1.11 | 0.413 | 0.454 | 0.384 | 0.412 | 0.373
16 | HCC-15 | 0.362 | 0.392 | 0.356 | 0.389 | 0.434 | 0.705 | 0.692 | 0.77 | 0.6 | 0.719 | 0.778 | 0.832 | 0.882 | 0.889 | 0.888 | 0.48 | 0.462 | 0.503 | 0.419 | 0.431
17 | HCC-44 | 1.04 | 1.04 | 1.08 | 1.04 | 1.12 | 0.67 | 0.584 | 0.6 | 0.392 | 0.533 | 0.801 | 0.752 | 0.785 | 0.727 | 0.89 | 0.179 | 0.4 | 0.185 | 0.192 | 0.176
18 | HCC-78 | 0.79 | 0.708 | 0.868 | 0.785 | 0.65 | 0.394 | 0.406 | 0.508 | 0.406 | 0.377 | 0.327 | 0.282 | 0.297 | 0.34 | 0.372 | 0.642 | 0.812 | 0.675 | 0.698 | 0.738
